Values belong to the compound of their own block, whether it stands above or below them.
Experiments:
THP-1 cells = experiment: Cell viability of THP-1 cells (CytoX)
Protocol: After 1 hour, each sample was treated at a concentration of 5 μM. After culturing for 24 hours, 5 μL of CytoX (LPS solution, Korea) solution was added into each well and incubated for another 4 hours. Then, absorbance was measured at 450 nm. The cell viability was calculated according to the following equation with the value of the negative control treated with DMSO as 100%.

Resistin-CAP1 binding = molecular target: T1, Resistin-CAP1 binding (Homo sapiens, UniProt Q9HD89); experiment: Resistin-CAP1 competitive binding assay (enzyme immunological method); conditions: for Resistin-CAP1 binding inhibitory effect: in words, FIG. 5a-5c; for binding inhibitory activity of Resistin-CAP1: 25 μM, 50 μM, and 100 μM, FIG. 8
T1 sequence (Q9HD89 19-108): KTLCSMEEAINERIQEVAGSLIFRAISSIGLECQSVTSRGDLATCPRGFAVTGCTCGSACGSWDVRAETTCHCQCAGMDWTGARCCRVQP
Protocol: Recombinant CAP-1 protein was attached to a plate for immunoassay overnight, washed, and then the attachment of other proteins was blocked with 1% BSA/PBS solution, and the recombinant Resistin to which mouse Fc was attached and the sample were pre-reacted for 1 hour. Then, the solution was dispensed on the plate and reacted at room temperature for 2 hours. After washing the plate, HRP to be attached to the mFc of Resistin bound to CAP-1 was dispensed and reacted for 1 hour. After washing, the substrate was dispensed and reacted for 30 minutes by HRP, and absorbance was measured at a wavelength of 450 nm with a microplate meter.

[1] = system: Resistin-induced TNF-α production in THP-1 cells; experiment: TNF-alpha assay: Resistin-induced TNF-α production in THP-1 cells (ELISA); format: cell-based, human; conditions: for inhibitory effect on TNF-α induced by Resistin: in words, summary of Table 3b
Protocol: TNF-alpha assay was performed to examine the anti-inflammatory effect induced by the Resistin-CAP1 binding on the Elaeocarpus petiolatus extracts, fractions, and single compounds isolated therefrom.
After culturing for 1 hour, 2 μg/mL of human recombinant Resistin (Biovision) was treated and further cultured for 6 hours. Thereafter, the supernatant was recovered and stored at −70° C.
For TNF-alpha assay, Human TNF-alpha ELISA kit (BD bioscience) was used and analyzed according to the manufacturer's protocol.

[2] = 10 μg/mL, RETN +, THP-1 cells, isolated compounds

Compound: O=c1oc2c(O)c(O)cc3c(=O)oc4c(O)c(O)cc1c4c23 [Ellagic acid (6D), Ellagic acid]
Viability (%, Average ± Standard Deviation) (THP-1 cells; 2.5 μg/mL): 96.89 ± 0.05%
Viability (%, Average ± Standard Deviation) (THP-1 cells; 5 μg/mL): 98.73 ± 0.91%
Viability (%, Average ± Standard Deviation) (THP-1 cells; 10 μg/mL, isolated compounds): 94.38 ± 0.13%
Viability (%, Average ± Standard Deviation) (THP-1 cells; 20 μg/mL): 89.21 ± 1.01%
Resistin-CAP1 binding inhibitory effect (Resistin-CAP1 binding): concentration-dependent inhibitory effect
inhibition at 5 µg/mL ([1]; Homo sapiens, 5 μg/mL, RETN +, THP-1 cells, read-out: TNF-α Inhibition Rate (%, Average ± Standard Deviation)): 16.4 ± 5.12%
inhibition at 10 µg/mL ([1]; Homo sapiens, 10 μg/mL, RETN +, THP-1 cells, isolated compounds, read-out: TNF-α Inhibition Rate (%, Average ± Standard Deviation)): 27.4 ± 4.5%
inhibition at 20 µg/mL ([1]; Homo sapiens, 20 μg/mL, RETN +, THP-1 cells, read-out: TNF-α Inhibition Rate (%, Average ± Standard Deviation)): -18.6 ± 3.16%
inhibitory effect on TNF-α induced by Resistin [1]: exhibited an inhibitory effect on TNF-α production

Compound: C[C@H]1O[C@@H](Oc2c(-c3cc(O)c(O)c(O)c3)oc3cc(O)cc(O)c3c2=O)[C@@H](O)[C@@H](O)[C@@H]1O [Myricetin-3-O-α-L-rhamnoside (5E2), Myricetin-3-O-α-L-rhamnoside]
Viability (%, Average ± Standard Deviation) (THP-1 cells; 2.5 μg/mL): 99.54 ± 3.22%
Viability (%, Average ± Standard Deviation) (THP-1 cells; 5 μg/mL): 106.14 ± 0.93%
Viability (%, Average ± Standard Deviation) (THP-1 cells; 10 μg/mL, isolated compounds): 98.85 ± 1.07%
Viability (%, Average ± Standard Deviation) (THP-1 cells; 20 μg/mL): 100.12 ± 0.64%
binding inhibitory activity of Resistin-CAP1 (Resistin-CAP1 binding): inhibited the binding of Resistin-CAP1 in a concentration-dependent manner
Resistin-CAP1 binding inhibitory effect (Resistin-CAP1 binding): concentration-dependent inhibitory effect
TNF-α Inhibition Rate (%, Average ± Standard Deviation) ([1]; 5 μg/mL, RETN +, THP-1 cells): 28.57 ± 6.79%
TNF-α Inhibition Rate (%, Average ± Standard Deviation) [1, 2]: 24.13 ± 3.31%
TNF-α Inhibition Rate (%, Average ± Standard Deviation) ([1]; 20 μg/mL, RETN +, THP-1 cells): 33.64 ± 9.21%
inhibitory effect on TNF-α induced by Resistin [1]: exhibited an inhibitory effect on TNF-α production

binding inhibitory activity of Resistin-CAP1 (Resistin-CAP1 binding): no inhibitory activity
Compound: O=c1c(O)c(-c2cc(O)c(O)c(O)c2)oc2cc(O)cc(O)c12 [myricetin, Myricetin, reference compound]

Compound: Isorhamnetin-3-O-β-D-hexoside [Isorhamnetin-3-O-β-D-hexoside (6E)]
Viability (%, Average ± Standard Deviation) (THP-1 cells; 2.5 μg/mL): 101.71 ± 4.56%
Viability (%, Average ± Standard Deviation) (THP-1 cells; 5 μg/mL): 101.88 ± 0.10%
Viability (%, Average ± Standard Deviation) (THP-1 cells; 10 μg/mL, isolated compounds): 95.02 ± 0.20%
Viability (%, Average ± Standard Deviation) (THP-1 cells; 20 μg/mL): 94.72 ± 0.28%
Resistin-CAP1 binding inhibitory effect (Resistin-CAP1 binding): concentration-dependent inhibitory effect
TNF-α Inhibition Rate (%, Average ± Standard Deviation) ([1]; 5 μg/mL, RETN +, THP-1 cells): 43.06 ± 10.44%
TNF-α Inhibition Rate (%, Average ± Standard Deviation) [1, 2]: 51.29 ± 5.76%
TNF-α Inhibition Rate (%, Average ± Standard Deviation) ([1]; 20 μg/mL, RETN +, THP-1 cells): 59.53 ± 9.02%
inhibitory effect on TNF-α induced by Resistin [1]: exhibited an inhibitory effect on TNF-α production
